The record followed here is paper PMC10820826, “Interrogation and validation of the interactome of neuronal Munc18-interacting Mint proteins with AlphaFold2” (The Journal of Biological Chemistry, 2023).

For one test, the target named is T1, Munc18-1 (Rattus norvegicus, UniProt P61765).
T1 construct: His (C); made in house; host or cells: Escherichia coli Rosetta BL21 (DE3)
Kind of test: ITC of Mint peptides and Sx1a binding to Munc18-1.

Test [1] has as its target Munc18-1^Δ317–333 + Mint1. Kind of test: ITC of Sx1a binding to Munc18-1 hinge-loop deletion mutant in the presence of Mint1 (261–282) peptide. More on the design: species or system rat. The conditions noted are these: Table 2; syringe Sx1a + Mint1, cell Munc18-1^Δ317–333 + Mint1; ITC 25 °C. The text has this:
As Mint1 binds to Munc18-1 domain 3b, we hypothesized that the perturbed Mint1 interaction on deletion of the distal domain 3a hinge-loop might be due to altered structural dynamics in the combined domain3a/3b module. […] This is in line with the ability to cocrystallize the three proteins when excess Mint1 peptide is present ([47]). […] This has potential implications for a role of Mint proteins in Munc18-1-mediated SNARE assembly, which is a tightly regulated and highly dynamic process.
For ITC, all peptides were weighed and initially dissolved in the working buffer to make a stock concentration of 2 mM. […] GST-Mint1 and all the other proteins used in the experiments were buffer exchanged into 50 mM Tris (pH 8.0) and 200 mM NaCl by gel filtration prior to ITC. […] Mint1 PTB domain binding to the APP and TJAP1 peptides was performed in 50 mM Hepes, 200 mM NaCl, 0.5 mM TCEP, and 5% glycerol at 25 °C with 1 mM peptides titrated into 50 μM Mint1 PTB domain. The binding parameters, equilibrium constant Ka (1/Kd), stoichiometry (n), and the enthalpy (ΔH) were determined by processing the ITC data using ORIGIN 7.0 software. The equation, ΔG = ΔH – TΔS, was used to calculate the Gibbs free energy (ΔG), and all the experiments were performed in triplicate or duplicate to calculate the SEM for thermodynamic parameters.

Ends that are not written are not given here.

What is called Kd is the free concentration of one partner at which half of the binding sites on the other are occupied at equilibrium, for simple one-to-one binding.

T1 sequence (P61765 whole entry): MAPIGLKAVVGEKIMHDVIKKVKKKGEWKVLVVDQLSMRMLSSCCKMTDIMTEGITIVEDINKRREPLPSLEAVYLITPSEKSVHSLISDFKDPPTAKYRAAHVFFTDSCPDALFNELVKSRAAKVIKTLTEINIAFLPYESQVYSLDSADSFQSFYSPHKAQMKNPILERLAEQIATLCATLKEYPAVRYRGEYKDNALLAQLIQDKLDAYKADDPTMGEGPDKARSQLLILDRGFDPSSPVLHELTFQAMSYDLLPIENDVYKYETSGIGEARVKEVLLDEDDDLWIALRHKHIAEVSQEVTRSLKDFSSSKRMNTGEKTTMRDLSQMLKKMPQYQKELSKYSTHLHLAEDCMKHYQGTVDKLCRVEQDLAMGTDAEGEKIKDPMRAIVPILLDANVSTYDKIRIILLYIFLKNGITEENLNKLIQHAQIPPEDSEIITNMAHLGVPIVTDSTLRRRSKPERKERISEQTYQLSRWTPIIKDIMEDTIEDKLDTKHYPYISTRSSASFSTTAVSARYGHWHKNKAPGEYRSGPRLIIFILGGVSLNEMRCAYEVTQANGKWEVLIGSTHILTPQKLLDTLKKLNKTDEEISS

Turning to LEDQEEDIDQIVAEIKMELEMEEI [Mint2_2], the Kd on Munc18-1 was determined as 200 µM. For MDSYEQEEDIDQIVAAVKQSMS [Mint1_14], on Munc18-1, the dissociation constant (Kd) came out at 216 µM. For “Sx1a: recombinant rat Syntaxin1a (Sx1_1–261-His) expressed in E. coli”, the Kd in test [1] was determined as 0.09 µM.
